{"source": "patent US6828462B2", "about": "“Unsaturated 1-amino-alkylcyclohexane NMDA, 5HT3, and neuronal nicotinic receptor antagonists” (Merz Pharma GmbH & Co. KGAA, priority 2001, dated 2004)", "key": {"[1]": {"test_system": "myorelaxation (traction reflex)", "test": "Traction reflex test, myorelaxant action", "assay_type": "in vivo, mice", "conditions": "ED50 myorelaxation divided by ED50 MES", "description": "(§1) NMR female mice (18-28 g) housed 5 per cage were used for the maximal electroshock (MES) and motor impairment tests. All animals were kept with water and food ad libitum under a 12 hour light-dark cycle (light on at 6 a.m.) and at a controlled temperature (20±0.5C). All experiments were performed between 10 a.m. and 5 p.m. Tested agents were injected 30 min. i.p. before the induction of convulsions if not stated otherwise (see below). All compounds were dissolved in 0.9% saline.\n(§2) The MES test was performed together with tests for myorelaxant action (traction reflex) and motor coordination (rotarod). For the traction reflex test mice were placed with their forepaws on a horizontal rod and were required to place all 4 paws on the wire within 10 seconds. To test ataxia (motor coordination) mice were placed on an accelerating rotarod and were required to remain on the rod for 1 minute. […] These tests were followed by MES (100 Hz, 0.5 second shock duration, 50 mA shock intensity, 0.9 ms impulse duration, Ugo Basile) applied through corneal electrodes. The presence of tonic convulsions was scored (tonic extension of hind paws with minimum angle to the body of 90). The aim was to obtain ED50s for all parameters scored (anticonvulsive activity and motor side effects) with use of the Litchfield Wilcoxon test for quantal dose responses. Division of the ED50 for side effects (ataxia or myorelaxation) by the ED50 for antagonism of electroshock convulsions was used as a therapeutic index (TI).\n(§3) 4-7 doses of antagonists were tested in each of the in vivo tests (5-8 animals per dose) to allow calculation of graded ED50s according to probit analysis (Litchfield and Wilcoxon) with correction for 0% to 100% effects. ED50s are presented with 95% confidence limits (Cl). Pearson product moment correlation analysis (Sigma Stat, Jandel Scientific) was used to compare in vitro potencies and in vivo anticonvulsant activity."}, "[2]": {"test": "Traction reflex test, myorelaxant action", "assay_type": "in vivo, mice", "conditions": "mouse, in vivo, ip; NMR female mice, i.p., traction reflex; read-out: Myorelaxation ED50", "description": "as §1, §2, §3"}, "[3]": {"test_system": "maximal electroshock (MES) tonic convulsions", "test": "Maximal electroshock (MES) test, anticonvulsive activity", "assay_type": "in vivo, mice", "conditions": "Mus musculus, ip; NMR female mice, i.p. 30 min before convulsions; read-out: MES ED50", "description": "as §1, §2, §3"}, "[4]": {"test": "Accelerating rotarod test, ataxia (motor coordination)", "assay_type": "in vivo, mice", "conditions": "mouse, in vivo, ip; NMR female mice, accelerating rotarod", "description": "as §1, §2, §3"}, "ataxia (rotarod)": {"test_system": "ataxia (rotarod)", "test": "Accelerating rotarod test, ataxia (motor coordination)", "assay_type": "in vivo, mice", "conditions": "ED50 ataxia divided by ED50 MES", "description": "as §1, §2, §3"}, "[5]": {"molecular_target": "NMDA receptor ([3H]-(+)-MK-801 site) (Rattus norvegicus, UniProt P35439)", "test": "[3H]-(+)-MK-801 receptor binding, rat cortex membranes"}, "NMDA receptors": {"molecular_target": "T1, NMDA receptors (Rattus norvegicus, UniProt P35439)", "T1 construct": "Patch clamp recordings were made from these neurones; endogenous in cells; host or cells: primary cultured hippocampal neurones from rat embryos (E20 to E21)", "test": "Patch clamp, NMDA-induced currents in hippocampal neurones", "assay_type": "cell-based"}, "NR1a/2A receptors": {"molecular_target": "T2, NR1a/2A receptors (Homo sapiens, UniProt Q05586+Q12879)", "T2 construct": "expressed in transfected cells; host or cells: Xenopus laevis oocytes injected with subunit RNA", "T2 sequence (Q12879 23-1464, other chains not shown)": "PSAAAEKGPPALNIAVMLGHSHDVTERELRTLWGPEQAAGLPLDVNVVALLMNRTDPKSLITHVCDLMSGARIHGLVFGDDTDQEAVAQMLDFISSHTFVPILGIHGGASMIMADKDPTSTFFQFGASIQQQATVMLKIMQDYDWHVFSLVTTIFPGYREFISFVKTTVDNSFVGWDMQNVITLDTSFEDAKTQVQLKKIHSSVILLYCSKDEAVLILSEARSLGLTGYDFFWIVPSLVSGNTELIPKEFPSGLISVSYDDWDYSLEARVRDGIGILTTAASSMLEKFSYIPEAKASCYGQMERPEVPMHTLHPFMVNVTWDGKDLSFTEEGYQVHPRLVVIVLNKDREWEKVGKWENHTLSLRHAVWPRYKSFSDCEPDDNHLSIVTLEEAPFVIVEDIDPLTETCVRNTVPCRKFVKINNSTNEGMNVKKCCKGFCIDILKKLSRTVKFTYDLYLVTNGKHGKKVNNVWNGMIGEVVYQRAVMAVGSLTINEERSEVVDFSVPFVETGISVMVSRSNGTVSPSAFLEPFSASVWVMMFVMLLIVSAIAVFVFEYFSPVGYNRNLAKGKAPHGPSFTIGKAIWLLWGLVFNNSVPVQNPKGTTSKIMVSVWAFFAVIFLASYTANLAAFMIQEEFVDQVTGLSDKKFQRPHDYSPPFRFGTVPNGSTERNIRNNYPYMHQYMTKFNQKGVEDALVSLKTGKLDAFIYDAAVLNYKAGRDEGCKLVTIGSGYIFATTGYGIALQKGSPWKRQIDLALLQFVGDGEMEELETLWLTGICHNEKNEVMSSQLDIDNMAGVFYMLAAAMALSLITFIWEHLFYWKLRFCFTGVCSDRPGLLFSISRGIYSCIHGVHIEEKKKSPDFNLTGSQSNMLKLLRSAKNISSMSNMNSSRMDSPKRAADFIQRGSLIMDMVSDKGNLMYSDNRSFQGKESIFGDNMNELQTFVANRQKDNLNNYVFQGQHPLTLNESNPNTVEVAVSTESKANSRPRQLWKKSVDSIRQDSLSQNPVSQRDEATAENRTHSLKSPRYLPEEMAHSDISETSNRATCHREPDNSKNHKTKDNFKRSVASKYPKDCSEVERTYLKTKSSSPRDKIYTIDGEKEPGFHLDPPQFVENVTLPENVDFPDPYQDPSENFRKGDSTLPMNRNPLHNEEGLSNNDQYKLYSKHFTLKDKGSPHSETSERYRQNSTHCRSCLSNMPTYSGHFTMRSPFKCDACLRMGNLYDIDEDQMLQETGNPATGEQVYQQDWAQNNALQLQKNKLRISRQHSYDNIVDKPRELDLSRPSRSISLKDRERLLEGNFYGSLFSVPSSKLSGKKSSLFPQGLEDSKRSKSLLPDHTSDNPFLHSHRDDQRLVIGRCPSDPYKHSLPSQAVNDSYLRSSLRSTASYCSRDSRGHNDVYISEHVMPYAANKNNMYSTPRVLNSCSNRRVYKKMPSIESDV", "test": "NMDA receptor blockade in Xenopus oocytes, two-electrode voltage clamp", "assay_type": "cell-based", "conditions": "Xenopus oocytes expressing NR1a/2A", "description": "Mature female Xenopus laevis were anaesthetized in 0.2% Tricaine on ice for 15 min prior to surgery. Oocytes were removed and incubated in 2 mg/ml collagenase (type II) in Ca^2+-free oocyte Ringer solution (82.5 mM NaCl, 2 mM KCl, 2 mM MgCl2, 5 mM HEPES, pH 7.5) for 30 min. at room temperature and washed thoroughly with OR-2 (100 mM NaCl, 2 mM KCl, 1 mM MgCl2, 2 mM CaCl2, 5 mM HEPES, pH 7.5). The remaining follicle cell layer was removed manually with fine forceps and the oocytes were kept in OR-2. The RNA was dissolved in DEPC-treated, sterile distilled water. RNA for the NMDA NR1a subunit was mixed 1:1 with RNA for the NR2A subunit. Likewise neuronal nicotinic α4 RNA was mixed 1:1 with RNA for the β2 subunit. […]\nOnly results from stable cells were accepted for inclusion in the final analysis i.e. showing at least 50% recovery of responses to NMDA following removal of the antagonist tested. […] All antagonists were assessed at steady-state blockade with 6 to 7 concentrations on at least 4 cells. […]\nKinetic experiments were performed by applying various concentrations of unsaturated amino-alkyl-cyclohexanes (normally 5 in a log 3 dosing regime) for 10-20 seconds in the continuous presence of glutamate (100 μM and glycine 10 μM) for 90-180 seconds in Xenopus oocytes expressing NR1a/2A receptors. […] Voltage-dependency was then determined by comparing the glutamate and glutamate plus antagonist curves. […]"}}, "note": "pIC50, pKi: −log10 of the molar value.", "data": [{"smiles": "C=CC1(N)CC(C)(C)CC(C)(C)C1", "note": "[MRZ 2/759, 1-Ethenyl-3,3,5,5-tetramethylcyclohexylamine]", "values": [{"measurement": "Therapeutic index (myorelaxation ED50 / MES ED50)", "setting": "[1]", "result": 0.9}, {"measurement": "ED50 at 30 min", "setting": "[2]", "result": 12.8, "unit": "mg/kg"}, {"measurement": "ED50", "setting": "[3]", "result": 14.8, "unit": "mg/kg"}, {"measurement": "ED50 at 30 min", "setting": "[4]", "result": 15, "unit": "mg/kg"}, {"measurement": "Therapeutic index (ataxia ED50 / MES ED50)", "setting": "ataxia (rotarod)", "result": 1.0}, {"measurement": "pKi", "setting": "[5]", "result": 5.93}, {"measurement": "pIC50", "setting": "NMDA receptors; Table 1, mean, N=6, read-out: NMDA IC50", "result": 5.48}, {"measurement": "use- and voltage-dependency of blockade", "setting": "NMDA receptors; hippocampal neurones, NMDA-induced currents", "result": "clear use- and voltage-dependency"}, {"measurement": "Steady-state inward current responses to NMDA", "setting": "NMDA receptors; hippocampal neurones, NMDA 200 μM with glycine 1 μM at -70 mV", "result": "antagonized"}, {"measurement": "pIC50", "setting": "NR1a/2A receptors; glutamate 100 μM, glycine 10 μM, -70 mV", "result": 5.70}, {"measurement": "Hill", "setting": "NR1a/2A receptors; logistic fit of the concentration-blockade curve", "result": 0.75}]}]}
